What all share (format): functional, cell-based
Common to all, as to settings: Homo sapiens

In experiment [1] the test system is Dendritic cell. The experiment in a line: Induction of IL-12p40 in dendritic cells.
In experiment [2] the test system is Dendritic cell. The experiment in a line: Induction of antigen presentation in dendritic cells.
Experiment [3] relates to Dendritic cell. The experiment in a line: Inhibition of antigen presentation in dendritic cells.

SMILES strings stand for the structures. Active and inactive are the calls of the source. The rule behind the calls is not given here. Residues, ends and D or L forms follow the SMILES beside them. *: point of attachment. X2 = C[C@H](N*)C(=O)N(C(=O)c1cn(CCOCCOCCOc2nc(N)c3nc(O)n(Cc4ccccc4)c3n2)nn1)[C@@H](CCCCN)C(N)=O; X1 = Nc1nc(OCCOCCOCCn2cc(C(=O)*)nn2)nc2c1nc(O)n2Cc1ccccc1

We go through five molecules from ChEMBL document CHEMBL1147819, “Synthesis of 2-alkoxy-8-hydroxyadenylpeptides: towards synthetic epitope-based vaccines” (Bioorg Med Chem Lett, 2006).

For the molecule `COCCOc1nc(N)c2[nH]c(=O)n(Cc3ccccc3)c2n1`, in the experiment on Dendritic cell [1], the result was Active. Same read-out and setting: next, `[N-]=[N+]=NCCOCCOCCOc1nc(N)c2[nH]c(=O)n(Cc3ccccc3)c2n1`: “Active”. Take `CC[C@H](C)[C@H](NC(=O)[C@H](CO)NC(=O)[C@H](CCC(=O)O)NC(=O)[C@H](CC(C)C)NC(=O)[C@H](CCC(N)=O)NC(=O)[C@H](CCC(=O)O)NC(=O)[C@H](CC(C)C)NC(=O)CNC(=O)[C@H](CO)NC(=O)[C@@H](NC(=O)[C@H](CCC(=O)O)NC(=O)[C@@H](N)CC(=O)O)C(C)C)C(=O)N[C@H](C(=O)N[C@@H](CC(N)=O)C(=O)N[C@@H](Cc1ccccc1)C(=O)N[C@@H](CCC(=O)O)C(=O)N[C@@H](CCCCN)C(=O)N[C@@H](CC(C)C)C(=O)N[C@@H](C)C(=O)N[C@@H](C)C(=O)N[C@@H](C)C(=O)N[C@@H](C)C(=O)N[C@@H](C)C(=O)N(C(=O)c1cn(CCOCCOCCOc2nc(N)c3nc(O)n(Cc4ccccc4)c3n2)nn1)[C@@H](CCCCN)C(N)=O)[C@@H](C)CC` (H-DEVSGLEQLESIINFEKLAAAA-X2): the outcome in the experiment with Dendritic cell [2] and with Dendritic cell [3] was Active. Consider `CC[C@H](C)[C@H](NC(=O)[C@H](CO)NC(=O)[C@H](CCC(=O)O)NC(=O)[C@H](CC(C)C)NC(=O)[C@H](CCC(N)=O)NC(=O)[C@H](CCC(=O)O)NC(=O)[C@H](CC(C)C)NC(=O)CNC(=O)[C@H](CO)NC(=O)[C@@H](NC(=O)[C@H](CCC(=O)O)NC(=O)[C@H](CC(=O)O)NC(=O)c1cn(CCOCCOCCOc2nc(N)c3nc(O)n(Cc4ccccc4)c3n2)nn1)C(C)C)C(=O)N[C@H](C(=O)N[C@@H](CC(N)=O)C(=O)N[C@@H](Cc1ccccc1)C(=O)N[C@@H](CCC(=O)O)C(=O)N[C@@H](CCCCN)C(=O)N[C@@H](CC(C)C)C(=O)O)[C@@H](C)CC` (X1-DEVSGLEQLESIINFEKL-OH), for which the outcome with Dendritic cell [2] and in the experiment on Dendritic cell [3] was Active. On to `CC[C@H](C)[C@H](NC(=O)[C@H](CO)NC(=O)[C@H](CCC(=O)O)NC(=O)[C@H](CC(C)C)NC(=O)[C@H](CCC(N)=O)NC(=O)[C@H](CCC(=O)O)NC(=O)[C@H](CC(C)C)NC(=O)CNC(=O)[C@H](CO)NC(=O)[C@@H](NC(=O)[C@H](CCC(=O)O)NC(=O)[C@H](CC(=O)O)NC(=O)c1cn(CCOCCOCCOc2nc(N)c3nc(O)n(Cc4ccccc4)c3n2)nn1)C(C)C)C(=O)N[C@H](C(=O)N[C@@H](CC(N)=O)C(=O)N[C@@H](Cc1ccccc1)C(=O)N[C@@H](CCC(=O)O)C(=O)N[C@@H](CCCCN)C(=O)N[C@@H](CC(C)C)C(=O)N[C@@H](C)C(=O)N[C@@H](C)C(=O)N[C@@H](C)C(=O)N[C@@H](C)C(=O)N[C@@H](C)C(=O)N[C@@H](CCCCN)C(N)=O)[C@@H](C)CC` (X1-DEVSGLEQLESIINFEKLAAAAAK-NH2), for which the result in the experiment with Dendritic cell [2] and in the experiment on Dendritic cell [3] was Active.
